PubChem BioAssay AID1963970 (Molecular Pharmacology Branch, DTP, NCI, 2024)
pIC50: −log10 of the molar value.

Test system: 931267-113-T-J1-PDC multicell spheroid viability
Experiment: Anticancer human tumor 931267-113-T-J1-PDC patient-derived colon adenocarcinoma cell line growth inhibition [PI3K]
Conditions: for pIC50: curve of first compound; for viability, T/C: stronger effect = lower value
Outline: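 Targeted small molecules plus PI3K inhibitors, half-log dose series from Cmax (default top 10 microM), were applied to heterotypic spheroids of cancer cells with HUVEC and MSCs. Viability indicated growth inhibition.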

[1] = second compound 0.0316 µM, first compound 0.0316 µM
[2] = second compound 0.0316 µM, first compound 0.1 µM
[3] = second compound 0.0316 µM, first compound 0.316 µM
[4] = second compound 0.0316 µM, first compound 1 µM
[5] = second compound 0.0316 µM, first compound 3.16 µM
[6] = second compound 0.0316 µM, first compound 10 µM
[7] = second compound 0.1 µM, first compound 0.0316 µM
[8] = second compound 0.1 µM, first compound 0.1 µM
[9] = second compound 0.1 µM, first compound 0.316 µM
[10] = second compound 0.1 µM, first compound 1 µM
[11] = second compound 0.1 µM, first compound 3.16 µM
[12] = second compound 0.1 µM, first compound 10 µM
[13] = second compound 0.316 µM, first compound 0.0316 µM
[14] = second compound 0.316 µM, first compound 0.1 µM
[15] = second compound 0.316 µM, first compound 0.316 µM
[16] = second compound 0.316 µM, first compound 1 µM
[17] = second compound 0.316 µM, first compound 3.16 µM
[18] = second compound 0.316 µM, first compound 10 µM
[19] = second compound 1 µM, first compound 0.0316 µM
[20] = second compound 1 µM, first compound 0.1 µM
[21] = second compound 1 µM, first compound 0.316 µM
[22] = second compound 1 µM, first compound 1 µM
[23] = second compound 1 µM, first compound 3.16 µM
[24] = second compound 1 µM, first compound 10 µM
[25] = second compound 3.16 µM, first compound 0.0316 µM
[26] = second compound 3.16 µM, first compound 0.1 µM
[27] = second compound 3.16 µM, first compound 0.316 µM
[28] = second compound 3.16 µM, first compound 1 µM
[29] = second compound 3.16 µM, first compound 3.16 µM
[30] = second compound 3.16 µM, first compound 10 µM
[31] = second compound 10 µM, first compound 0.0316 µM
[32] = second compound 10 µM, first compound 0.1 µM
[33] = second compound 10 µM, first compound 0.316 µM
[34] = second compound 10 µM, first compound 1 µM
[35] = second compound 10 µM, first compound 3.16 µM
[36] = second compound 10 µM, first compound 10 µM
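Further: viability read 7 days after compound addition.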

CC(C)NCC(C(=O)N1CCN(c2ncnc3c2C(C)CC3O)CC1)c1ccc(Cl)cc1 (stereo not drawn) + Cc1nc(NC(=O)N2CCCC2C(N)=O)sc1-c1ccnc(C(C)(C)C(F)(F)F)c1
pIC50 (second compound 0.0316 µM): < 5.00 | pIC50 (second compound 0.1 µM): < 5.00 | pIC50 (second compound 0.316 µM): < 5.00 | pIC50 (second compound 1 µM): < 5.00 | pIC50 (second compound 3.16 µM): < 5.00 | pIC50 (second compound 10 µM): < 5.00 | viability, T/C [1]: 103% | viability, T/C [2]: 103% | viability, T/C [3]: 90.9% | viability, T/C [4]: 95.2% | viability, T/C [5]: 97.6% | viability, T/C [6]: 73.5% | viability, T/C [7]: 97.8% | viability, T/C [8]: 85.5% | viability, T/C [9]: 92.6% | viability, T/C [10]: 86.7% | viability, T/C [11]: 83.5% | viability, T/C [12]: 71.7% | viability, T/C [13]: 97.9% | viability, T/C [14]: 89.6% | viability, T/C [15]: 88.7% | viability, T/C [16]: 84% | viability, T/C [17]: 80.4% | viability, T/C [18]: 68.6% | viability, T/C [19]: 82.2% | viability, T/C [20]: 80.4% | viability, T/C [21]: 89.3% | viability, T/C [22]: 88.8% | viability, T/C [23]: 79.9% | viability, T/C [24]: 67.7% | viability, T/C [25]: 73.2% | viability, T/C [26]: 81.1% | viability, T/C [27]: 67.7% | viability, T/C [28]: 65% | viability, T/C [29]: 70% | viability, T/C [30]: 61% | viability, T/C [31]: 60.4% | viability, T/C [32]: 52.4% | viability, T/C [33]: 59% | viability, T/C [34]: 57.4% | viability, T/C [35]: 62.8% | viability, T/C [36]: 51.4%

CCN1CCN(Cc2ccc(Nc3ncc(F)c(-c4cc(F)c5nc(C)n(C(C)C)c5c4)n3)nc2)CC1 + Cc1nc(NC(=O)N2CCCC2C(N)=O)sc1-c1ccnc(C(C)(C)C(F)(F)F)c1
pIC50 (second compound 0.0316 µM): < 6.00 | pIC50 (second compound 0.1 µM): < 6.00 | pIC50 (second compound 0.316 µM): < 6.00 | pIC50 (second compound 1 µM): < 6.00 | pIC50 (second compound 3.16 µM): < 6.00 | pIC50 (second compound 10 µM): < 6.00 | viability, T/C (second compound 0.0316 µM, first compound 0.00316 µM): 91.7% | viability, T/C (second compound 0.0316 µM, first compound 0.01 µM): 99.6% | viability, T/C [1]: 100% | viability, T/C [2]: 103% | viability, T/C [3]: 94.3% | viability, T/C [4]: 86.2% | viability, T/C (second compound 0.1 µM, first compound 0.00316 µM): 98% | viability, T/C (second compound 0.1 µM, first compound 0.01 µM): 97.1% | viability, T/C [7]: 102% | viability, T/C [8]: 96.5% | viability, T/C [9]: 84.6% | viability, T/C [10]: 84.5% | viability, T/C (second compound 0.316 µM, first compound 0.00316 µM): 91.2% | viability, T/C (second compound 0.316 µM, first compound 0.01 µM): 81.2% | viability, T/C [13]: 96.1% | viability, T/C [14]: 91.8% | viability, T/C [15]: 81% | viability, T/C [16]: 75.1% | viability, T/C (second compound 1 µM, first compound 0.00316 µM): 69.4% | viability, T/C (second compound 1 µM, first compound 0.01 µM): 83.1% | viability, T/C [19]: 79.7% | viability, T/C [20]: 77.5% | viability, T/C [21]: 71.5% | viability, T/C [22]: 62.4% | viability, T/C (second compound 3.16 µM, first compound 0.00316 µM): 71.4% | viability, T/C (second compound 3.16 µM, first compound 0.01 µM): 80.7% | viability, T/C [25]: 66.8% | viability, T/C [26]: 61.9% | viability, T/C [27]: 55.8% | viability, T/C [28]: 59.4% | viability, T/C (second compound 10 µM, first compound 0.00316 µM): 58.6% | viability, T/C (second compound 10 µM, first compound 0.01 µM): 57% | viability, T/C [31]: 50.1% | viability, T/C [32]: 43.3% | viability, T/C [33]: 50.4% | viability, T/C [34]: 57.2%

Cn1ncc(Cl)c1-c1cc(C(=O)NC(CN)Cc2cccc(F)c2)sc1Cl (stereo not drawn) + Cc1nc(NC(=O)N2CCCC2C(N)=O)sc1-c1ccnc(C(C)(C)C(F)(F)F)c1
pIC50 (second compound 0.0316 µM): 5.20 | pIC50 (second compound 0.1 µM): 5.27 | pIC50 (second compound 0.316 µM): 5.26 | pIC50 (second compound 1 µM): 5.37 | pIC50 (second compound 3.16 µM): 5.38 | pIC50 (second compound 10 µM): 5.58 | viability, T/C [1]: 97.3% | viability, T/C [2]: 89% | viability, T/C [3]: 88.7% | viability, T/C [4]: 73.6% | viability, T/C [5]: 79.7% | viability, T/C [6]: 33.6% | viability, T/C [7]: 101% | viability, T/C [8]: 86% | viability, T/C [9]: 91.4% | viability, T/C [10]: 85% | viability, T/C [11]: 68.3% | viability, T/C [12]: 29.4% | viability, T/C [13]: 89.3% | viability, T/C [14]: 94% | viability, T/C [15]: 83.2% | viability, T/C [16]: 85.9% | viability, T/C [17]: 68.2% | viability, T/C [18]: 30.2% | viability, T/C [19]: 84.3% | viability, T/C [20]: 84.7% | viability, T/C [21]: 77% | viability, T/C [22]: 68.7% | viability, T/C [23]: 59.9% | viability, T/C [24]: 30.1% | viability, T/C [25]: 73.6% | viability, T/C [26]: 61.7% | viability, T/C [27]: 66.9% | viability, T/C [28]: 63.8% | viability, T/C [29]: 58.8% | viability, T/C [30]: 23.5% | viability, T/C [31]: 69.9% | viability, T/C [32]: 61.6% | viability, T/C [33]: 58.7% | viability, T/C [34]: 60.5% | viability, T/C [35]: 48.9% | viability, T/C [36]: 21.9%

Cn1nccc1Nc1nccc(-c2ccn(C(CO)c3ccc(Cl)c(F)c3)c(=O)c2)n1 (stereo not drawn) + Cc1nc(NC(=O)N2CCCC2C(N)=O)sc1-c1ccnc(C(C)(C)C(F)(F)F)c1
pIC50 (second compound 0.0316 µM): 5.32 | pIC50 (second compound 0.1 µM): 5.45 | pIC50 (second compound 0.316 µM): 5.62 | pIC50 (second compound 1 µM): 5.83 | pIC50 (second compound 3.16 µM): 6.19 | pIC50 (second compound 10 µM): 6.84 | viability, T/C [1]: 94.7% | viability, T/C [2]: 90.4% | viability, T/C [3]: 92.4% | viability, T/C [4]: 77.2% | viability, T/C [5]: 57.5% | viability, T/C [6]: 37.3% | viability, T/C [7]: 102% | viability, T/C [8]: 88.4% | viability, T/C [9]: 82.8% | viability, T/C [10]: 68.9% | viability, T/C [11]: 52.9% | viability, T/C [12]: 31.7% | viability, T/C [13]: 90.3% | viability, T/C [14]: 92.2% | viability, T/C [15]: 77.9% | viability, T/C [16]: 68% | viability, T/C [17]: 43.9% | viability, T/C [18]: 27.5% | viability, T/C [19]: 86.4% | viability, T/C [20]: 78.5% | viability, T/C [21]: 71.4% | viability, T/C [22]: 54% | viability, T/C [23]: 39.5% | viability, T/C [24]: 19.1% | viability, T/C [25]: 74.9% | viability, T/C [26]: 65.2% | viability, T/C [27]: 58.1% | viability, T/C [28]: 43.6% | viability, T/C [29]: 36.3% | viability, T/C [30]: 15.2% | viability, T/C [31]: 57% | viability, T/C [32]: 50.7% | viability, T/C [33]: 45.2% | viability, T/C [34]: 39.4% | viability, T/C [35]: 26.4% | viability, T/C [36]: 14.3%
